Test results taken from patent publication US11389456B2, “Compounds and methods for treating oxalate-related diseases” (OxaluRx, Inc., priority 2018, dated 2022).
Values after ≈ are worked out from the molar mass of the structure shown.

What was measured:
[1] = molecular target: recombinant full-length human hydroxyacid oxidase 1 (HAO1), the equivalent of hGOX (Homo sapiens (Human), UniProt Q9UJM8); assay: In-vitro human glycolate oxidase (hGOX) assay (Amplex red/HRP fluorescence); format: biochemical
Experimental: Biological Activity Assay: In-Vitro Human Glycolate Oxidase (hGOX) Assay
The in-vitro glycolate oxidase assay was performed using recombinant full-length human hydroxyacid oxidase 1 (HAO1), the equivalent of hGOX. […] Purified HAO1 was dissolved in assay buffer consisting of 10 mM NaCl, 110 mM KCl, 2 mM MgCl2, 50 mM HEPES (pH 7.4) and 0.01% Triton™ X-100.

[2] = Solubility in phosphate buffered saline (PBS), pH 7.4; format: physicochemical; conditions: phosphate buffer (PBS), aqueous buffer, kinetic from dmso stock; phosphate buffered saline pH 7.4, 1% DMSO, 1 hour shaking at room temperature
Experimental: (§1) For testing compound solubility in phosphate buffered saline (PBS), compound stock solutions were prepared at 10 mM in 100% DMSO. For testing in aqueous solution, the phosphate buffer was replaced with deionized, distilled water. Eleven grams Na2HPO4 (FW: 141.96 g/mol) and 3.5 g NaH2PO4.2H2O (FW: 156.03 g/mol) was added to 1 L Milli-Q water and adjusted to a pH to 7.4 with phosphoric acid or sodium hydroxide. For incubation, media were preheated to 37° C. Eight μL aliquots of reference and test compound stock solutions (10 mM) were added into 792 μL of 100 mM phosphate buffer (pH 7.4). The final DMSO concentration was 1%. Sample tubes were shaken for 1 hour at 1000 rpm at room temperature.
(§2) The calibration curve was prepared with 300-μM spiking solution (SS) in MeOH:acetonitrile (4:1). Six μL of 10 mM compound was added in 194 μL MeOH/acetonitrile (4:1). Samples were centrifuged for 10 minutes at 12,000 rpm to precipitate undissolved particles. Supernatants were transferred to a new tube or plate and dilute 10-fold and 100-fold with 100 mM buffer. Samples were prepared for LC-MS/MS analysis by adding 5 μL each sample (undiluted, 10-fold diluted, and 100-fold diluted) and 5 μL of standard curve samples to 95 μL of acetonitrile (containing internal standard).

[3] = Solubility in aqueous solution (deionized, distilled water); format: physicochemical; conditions: kinetic from dmso stock, 1% DMSO, read-out: Aqueous Solubility H2O
Experimental: as §1, §2

[4] = Stability in human plasma; format: in vitro ADME; conditions: read-out: Plasma Stability T1/2
Experimental: Stability in Human Plasma.
Stock compounds were prepared for testing the stability in human plasma. First, 0.05 M sodium phosphate and 0.07 M NaCl buffer, pH 7.4, were pre-heated. In deionized water, 14.505 g/L Na2HPO 12H2O, 1.483 g/L NaH2PO4.2H2O and 4.095 g/L NaCl were dissolved. The basic solution was titrated with the phosphoric acid to pH 7.40. Frozen plasma was quickly thawed at 37° C. The plasma was centrifuged at 3,000 rpm for 8 minutes to remove clots, then pipetted and pooled as the plasma stock for the experiment. Only plasma within the range of pH 7.4 to pH 8 was used. If higher than pH 8, the plasma was discarded. The initial pH of the plasma was not adjusted to pH 7.4 with acid or by bubbling with carbon dioxide. By using a 5% carbon dioxide incubator and PBS buffer, a pH of 7.4 will be reached after the 4-hour equilibrium dialysis time. Plasma was iced until use.
Spiking solution A with 0.5 mM testing compounds was prepared by adding 10 μL of 10 mM test compounds stock solution to 190 μL DMSO. Spiking solution B with 0.02 mM testing compound was prepared by adding 40 μL of spiking solution A to 960 μL of […] sodium phosphate buffer with 0.5% BSA. The plasma and spiking solution B were prewarmed at 37° C. for 5 minutes. Ten μL of pre-warmed spiking solution B was added into the wells designated for all the time points (5, 15, 30, 45, 60 minutes). For the 0-minute timepoint, 400 μL acetonitrile containing internal standard were added to the wells of 0-minute plate and then 90 μL plasma were added. For the other timepoints, 90 μL of pre-warmed plasma were added into the wells (0, 5, 15, 30, 45, 60 minutes) and the timing was started. At 5, 15, 30, 45, 60 minutes, 400 μL acetonitrile containing internal standard were added to the wells of corresponding plates, respectively, to stop the reaction. After quenching, the plates were shaken on a vibrator (IKA, MTS 2/4) for 10 minutes at 600 rpm and then centrifuged at 5594×g for 15 minutes (Thermo Multifuge×3R). Fifty μL of supernatant was transferred from each well into a 96-well sample plate containing 50 μL ultra-pure water (Millipore, ZMQS50F01) for LC/MS analysis.

[5] = Protein binding (plasma equilibrium dialysis); format: in vitro ADME; conditions: 5 hours at 37° C.; for fraction unbound at 5 h, 1 μM: read-out: Protein Binding Fraction Bound (converted)
Experimental: For testing protein binding of stock compounds solubilized in DMSO, spiking solutions of test and reference compounds were prepared. Solution A (0.5 mM) was prepared by adding 10 μL of 10 mM stock solution into 190 μL of DMSO. Solution B (0.02 mM) was prepared by adding 8 μL of Solution A into 192 μL of 0.05 M sodium phosphate buffer. The final DMSO concentration in Solution B was 4%.
To prepare test and reference compounds in plasma, a 96-well plate with 380 μL aliquots of plasma in the wells designed for plasma and buffer, respectively. Twenty μL of Solution B (0.02 mM of test and reference compounds) were spiked into the pre-loaded plasma in the 96-well plate. The final test concentration is 1 μM containing 0.2% DMSO.
For dialysis sample loading a plasma again buffer system was prepared by applying aliquots of 100 μL of blank dialysis buffer to the receiver side of dialysis chambers and then applying aliquots of 100 μL of the plasma spiked with test and reference compounds to the donor side of the dialysis chamber. A 25-μL aliquot of the plasma spiked with test and reference compounds was added into a 96-well sample preparation plate as T″0″ plasma samples. Aliquots were mixed with the same volume of blank buffer (50:50, volume:volume). Samples were quenched with 200 μL of acetonitrile containing internal standard. The dialysis block was covered and a shaken at 60 rpm for 5 hours at 37° C.
After a 5-hour incubation, dialyzed samples were prepared from 25-μL aliquots from both the donor and receiver sides of the dialysis apparatus into new sample preparation plates. The aliquots were mixed with same volume of opposite matrixes. The samples were quenched with 200 μL acetonitrile containing internal standard. All 0-hour and 5-hour samples were vortexed at 600 rpm for 10 min followed by centrifugation at 5594×g for 15 minutes (Thermo Multifuge×3R). Fifty μL of the supernatants were transferred to anew 96-well plate and mixed with 50 μL Milli-Q water. The sample plate was covered and frozen at −20° C. until LC/MS/MS analysis.

[6] = Metabolic stability in human liver microsomal preparation; format: in vitro ADME; conditions: pH 7.4, human liver microsomes, NADPH, 37° C.; for half-life at 1 μM: 0-45 min, read-out: Metabolic Stability t1/2
Experimental: For evaluating the metabolic stability in human liver microsomal preparation, three buffers were prepared. Buffer A had 1.0 L of 0.1 M monobasic potassium phosphate buffer containing 1.0 mM EDTA. Buffer B had 1.0 L of 0.1 M dibasic potassium phosphate buffer containing 1.0 mM EDTA. Buffer C had 0.1 M potassium phosphate buffer, 1.0 mM EDTA, adjusted to a pH 7.4 via titrating 700 mL buffer B with buffer A. Reference compound (ketanserin) and test compounds spiking solutions (500 μM) were prepared by adding 10 μL of 10 mM DMSO stock compound solution into 190 μL acetonitrile. A volume of 1.5 μL 500 μM spiking solution and 18.75 μL 20 mg/mL human liver microsomes were added into 479.75 μL of Buffer C on ice. A stock solution of 6 mM NADPH was prepared by dissolving NADPH into Buffer C.
Wells on an assay plate were iced and filled with 30 μL 1.5-μM spiking solution containing 0.75 mg/mL microsomes solution and designated for different timepoints (0-, 5-, 15-, 30-, 45-min). For the 0-min timepoint, 135 μL acetonitrile containing internal standard were added followed by 15 μL of NADPH stock solution (6 mM). All other plates were preincubated at 37° C. for 5 minutes and 15 μL NADPH stock solution (6 mM) were added to the plates to start the reaction. At 5-min, 15-min, 30-min, and 45-min, 135 μL acetonitrile containing internal standard were added to the wells of corresponding plates, respectively, to stop the reaction. After quenching, the plates were shaken on the vibrator (IKA, MTS 2/4) for 10 min at 600 rpm and then centrifuged at 5594×g for 15 minutes (Thermo Multifuge×3R). Fifty μL supernatant from each well were transported into a 96-well sample plate containing 50 μL of ultra-pure water (Millipore, ZMQS50F01) for LC/MS analysis.

Sequence of recombinant full-length human hydroxyacid oxidase 1 (HAO1), the equivalent of hGOX (Q9UJM8 whole entry): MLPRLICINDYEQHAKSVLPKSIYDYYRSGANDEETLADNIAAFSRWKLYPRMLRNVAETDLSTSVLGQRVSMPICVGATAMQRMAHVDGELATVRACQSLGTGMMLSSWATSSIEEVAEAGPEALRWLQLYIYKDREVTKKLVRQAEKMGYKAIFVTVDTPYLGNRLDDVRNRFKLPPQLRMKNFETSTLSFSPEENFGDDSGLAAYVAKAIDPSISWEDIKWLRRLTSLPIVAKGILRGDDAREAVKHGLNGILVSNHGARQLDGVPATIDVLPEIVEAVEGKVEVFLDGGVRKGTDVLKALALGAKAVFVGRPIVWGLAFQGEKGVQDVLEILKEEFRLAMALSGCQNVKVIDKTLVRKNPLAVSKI

IC50 [1] [nM] | solubility at 1 h [2] [µM] | solubility at 1 h [3] [µM] | half-life at 2 μM [4] [h] | recovery at 5 h, 1 μM [5] [%] | CLint scaled at 1 μM [6] [mL/min/kg] | half-life at 1 μM [6] [h] | fraction unbound at 5 h, 1 μM [5] | SMILES
67 | 121 (≈ 29 µg/mL) | 108 (≈ 25.8 µg/mL) | 1.26 | 123 | < 0.15 | > 83.3 | – | O=C(O)c1nn[nH]c1Oc1ccc(Cl)cc1 [Example I-033, 5-(4-Chlorophenoxy)-1H-1,2,3-triazole-4-carboxylic acid]
51 | 97.6 (≈ 28 µg/mL) | 111 (≈ 31.9 µg/mL) | 1.84 | 106 | 84.2 | 0.344 | – | O=C(O)c1nn[nH]c1Oc1cccc(C2CCCCC2)c1 [Example I-268, 5-(3-Cyclohexylphenoxy)-1H-1,2,3-triazole-4-carboxylic acid]
24 | 92.4 (≈ 21.2 µg/mL) | 80.6 (≈ 18.5 µg/mL) | 1.96 | 110 | 3.11 | 9.31 | 0.025 | C#Cc1cccc(Oc2[nH]nnc2C(=O)O)c1 [Example I-288, 5-(3-ethynylphenoxy)-1H-1,2,3-triazole-4-carboxylic acid]
45 | 112 (≈ 30.8 µg/mL) | 108 (≈ 29.7 µg/mL) | 2.2 | 99.9 | 35.2 | 0.822 | 0.003 | CCCC(C)c1ccc(Oc2[nH]nnc2C(=O)O)cc1 (centres unmarked) [Example I-273, 5-(4-(Pentan-2-yl)phenoxy)-1H-1,2,3-triazole-4-carboxylic acid]
14 | 92.6 (≈ 24 µg/mL) | 95.8 (≈ 24.8 µg/mL) | 3.45 | 103 | 15.1 | 1.92 | 0.002 | CC(C)=Cc1cccc(Oc2[nH]nnc2C(=O)O)c1 [Example I-286, 5-(3-(2-Methylprop-1-en-1-yl)phenoxy)-1H-1,2,3-triazole-4-carboxylic acid]
35 | 79.8 (≈ 21.8 µg/mL) | 82.6 (≈ 22.6 µg/mL) | 1.15 | 113 | < 0.15 | > 83.3 | – | O=C(O)c1nn[nH]c1Oc1cccc(C2CCCC2)c1 [Example I-267, 5-(3-Cyclopentylphenoxy)-1H-1,2,3-triazole-4-carboxylic acid]
105 | 109 (≈ 36 µg/mL) | 103 (≈ 34.2 µg/mL) | 2.19 | 91.8 | < 0.15 | > 83.3 | 0.01 | O=C(O)c1nn[nH]c1Oc1cccc(S(F)(F)(F)(F)F)c1 [Example I-269, 5-(3-Pentafluorosulfanylphenoxy)-1H-1,2,3-triazole-4-carboxylic acid]
23 | 109 (≈ 30 µg/mL) | 103 (≈ 28.4 µg/mL) | 3.2 | 108 | 5.95 | 4.87 | 0.006 | CCC(CC)c1cccc(Oc2[nH]nnc2C(=O)O)c1 [Example I-276, 5-(3-(Pentan-3-yl)phenoxy)-1H-1,2,3-triazole-4-carboxylic acid]
3 | 112 (≈ 39 µg/mL) | 90.7 (≈ 31.7 µg/mL) | 1.67 | 104 | < 0.15 | > 83.3 | 0.017 | O=C(O)c1nn[nH]c1Oc1cccc(-c2cc(Cl)cc(Cl)c2)c1 [Example I-302, 5-((3′,5′-Dichloro-[1,1′-biphenyl]-3-yl)oxy)-1H-1,2,3-triazole-4-carboxylic acid]
22 | 115 (≈ 29.8 µg/mL) | 110 (≈ 28.5 µg/mL) | 1.7 | 98.5 | 18.3 | 1.58 | – | O=C(O)c1nn[nH]c1Oc1ccc(C2CCC2)cc1 [Example I-275, 5-(4-Cyclobutylphenoxy)-1H-1,2,3-triazole-4-carboxylic acid]
53 | 108 (≈ 26.4 µg/mL) | 108 (≈ 26.4 µg/mL) | 1.71 | 111 | 3.4 | 8.52 | – | O=C(O)c1nn[nH]c1Oc1ccc(C2CC2)cc1 [Example I-294, 5-(4-Cyclopropylphenoxy)-1H-1,2,3-triazole-4-carboxylic acid]
